Literature values in PMC6277767, “Broad and Region-Specific Impacts of the Synthetic Cannabinoid CP 55,940 in Adolescent and Adult Female Mouse Brains” (Frontiers in Molecular Neuroscience, 2018).

Legend:
[1] = parameters: method as in Leishman et al., 2018; conditions: acute exposure, all age groups; ref Leishman et al., 2018; cited from earlier work
CB2 = test system: CB2; parameters: method as in Felder et al., 1995; conditions: ref Felder et al., 1995; read-out: IC50, inhibition of adenylate cyclase at CB2; cited from earlier work
CB1 [2] = conditions: ref Brents et al., 2011; read-out: EC50, stimulated G-protein binding at CB1; cited from earlier work
CB1 [3] = test system: CB1; parameters: method as in Felder et al., 1995; conditions: ref Felder et al., 1995; read-out: IC50, inhibition of adenylate cyclase at CB1; cited from earlier work
BV-2 microglial cells = test system: BV-2 microglial cells; parameters: method as in Rimmerman et al., 2012; conditions: ref Rimmerman et al., 2012; cited from earlier work
DAGLα = test system: DAGLα; parameters: method as in Ogasawara et al., 2016; conditions: reductions measured at 2 h and 4 h post-injection; ref Ogasawara et al., 2016; cited from earlier work
[4] = test system: human peripheral blood mononuclear cells; parameters: method as in Bileck et al., 2016; conditions: 10 μM for 3 h; ref Bileck et al., 2016; cited from earlier work

**Q.** Which “brain area with highest THC levels” value [1] does the source give for `CCCCCc1cc(O)c2c(c1)OC(C)(C)[C@@H]1CCC(C)=C[C@@H]21` [THC, Δ^9-tetrahydrocannabinol] here?
**A.** Its value is “HIPP”.

**Q.** And the IC50 (CB2)?
**A.** Its IC50 is 41.8 nM.

**Q.** With `C=C(C)[C@@H]1CCC(C)=C[C@H]1c1c(O)cc(CCCCC)cc1O` [CBD, cannabidiol] as the compound, how does the “levels of AEA” value (BV-2 microglial cells) read?
**A.** The value was “increased”.

**Q.** With `C#CCO[C@@H]1CC[C@H](Cc2ccccc2)N(C(=O)n2ncc(C(O)(c3ccc(F)cc3)c3ccc(F)cc3)n2)C1` [DH376] as the compound, how does the “time for reduced 2-AG, AA and AEA levels to return to baseline” value (DAGLα) read?
**A.** Its value is ≤ 8 h.

**Q.** With `CCCCCCCC(C)(C)c1ccc([C@H]2CCC[C@@H](O)C2)c(O)c1` [CP 47,497-C8] as the compound, how does the “expression of 5-LOX compared to vehicle” value [4] read?
**A.** The value was 26 fold.

**Q.** What about the “expression of fatty acid synthase” value [4] of the same compound?
**A.** Its value is “over twofold”.
